Each compound was assayed against T1, BACE-1 enzyme (Homo sapiens, UniProt P56817) (assay: BACE Fluorescence Resonance Energy Transfer (FRET) Assay). Settings: pH 4-4.5, 30 min pre-incubation, about 1.5 hours reaction.
T1 construct: purchased R & D Systems 931AS
T1 sequence (P56817 46-457 limits assumed): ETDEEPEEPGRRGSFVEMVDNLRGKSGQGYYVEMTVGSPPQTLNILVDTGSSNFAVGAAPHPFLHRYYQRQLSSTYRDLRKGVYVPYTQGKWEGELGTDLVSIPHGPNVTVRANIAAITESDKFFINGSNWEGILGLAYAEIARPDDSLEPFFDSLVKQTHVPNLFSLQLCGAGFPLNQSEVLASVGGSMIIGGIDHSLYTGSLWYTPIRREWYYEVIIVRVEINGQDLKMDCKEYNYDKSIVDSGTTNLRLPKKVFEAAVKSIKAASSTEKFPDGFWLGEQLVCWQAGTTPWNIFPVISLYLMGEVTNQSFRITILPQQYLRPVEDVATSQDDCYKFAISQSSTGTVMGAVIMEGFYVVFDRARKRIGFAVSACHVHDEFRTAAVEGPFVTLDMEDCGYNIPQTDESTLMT
Assay type: biochemical
Method: BACE Fluorescence Resonance Energy Transfer (FRET) Assay
In the following assay, the proteolytic activity of BACE is measured by observing cleavage of a fluorescent group from a peptide substrate containing a rhodamine fluorescent donor and a quenching acceptor.
The inhibitory activity of compounds of Formula (I) may be compared to a statine derived control inhibitor STA200 (MP Biomedical Cat. #STA-200). The cleavage reaction occurs when a BACE-1 substrate (Invitrogen, Cat. #P2986) was added to a reaction mixture containing BACE-1 enzyme (R & D Systems, Cat. #931AS) and allowed to proceed for about 1.5 hours. Fluorescence, used as a marker of BACE activity, is monitored using 540 nm excitation and 585 nm emission wavelengths (Envision, Perkin Elmer).
A typical assay reaction contains BACE-1 enzyme—in assay buffer (50 mM sodium acetate, pH 4-4.5, 0.01% CHAPS (3-[(3-Cholamidopropyl)dimethylammonio]-1-propanesulfonate), 0.0125% TritonX-100, 0.006% EDTA) which is pre-incubated for 30 minutes with test compound in 7.5% DMSO. The reaction is initiated with the addition of BACE-1 substrate in assay buffer and allowed to proceed for about 1.5 hours at room temperature. Assays are conducted in black 384-well microtiter plates and scanned at room temperature using 540 nm excitation and 585 nm emission wavelengths.
In some instances, the percent inhibition at a given concentration is reported instead of the IC50.
`Cc1ccc2nc(C(=O)Nc3nc4cc(OCc5ccc(C(F)(F)F)cc5)ccc4[nH]3)cn2c1` [Example 60, 6-Methyl-imidazo[1,2-a]pyridine-2-carboxylic acid [5-(4-trifluoromethyl-benzyloxy)-1H-benzoimidazol-2-yl]-amide] was tested, and the IC50 was 0.45 µM.
`Cc1cccc2nc(C(=O)Nc3nc4cc(-c5cc(Cl)cc(C(F)(F)F)c5)ccc4[nH]3)cn12` [Example 66, 5-Methyl-imidazo[1,2-a]pyridine-2-carboxylic acid [6-(3-chloro-5-trifluoromethyl-phenyl)-1H-benzoimidazol-2-yl]-amide] gave an IC50 of 0.28 µM.
For `Cc1cccc2nc(C(=O)Nc3nc4cc(-c5cc(C(F)(F)F)ccc5Cl)ccc4[nH]3)cn12` [Example 67, 5-Methyl-imidazo[1,2-a]pyridine-2-carboxylic acid [5-(2-chloro-5-trifluoromethyl-phenyl)-1H-benzoimidazol-2-yl]-amide], the IC50 was 0.53 µM.
`Cc1cccc2nc(C(=O)Nc3nc4cc(-c5ccc(S(C)(=O)=O)cc5)ccc4[nH]3)cn12` [Example 73, 5-Methyl-imidazo[1,2-a]pyridine-2-carboxylic acid [5-(4-methanesulfonyl-phenyl)-1H-benzoimidazol-2-yl]-amide] gave an IC50 of 1.24 µM.
With `Cc1cccc2nc(C(=O)Nc3nc4cc(-c5cccc(S(C)(=O)=O)c5)ccc4[nH]3)cn12` [Example 74, 5-Methyl-imidazo[1,2-a]pyridine-2-carboxylic acid [5-(3-methanesulfonyl-phenyl)-1H-benzoimidazol-2-yl]-amide] the IC50 was 1.72 µM.
In the case of `Cc1cccn2cc(C(=O)Nc3nc4cc(-c5cccc(S(C)(=O)=O)c5)ccc4[nH]3)nc12` [Example 75, 8-Methyl-imidazo[1,2-a]pyridine-2-carboxylic acid [5-(3-methanesulfonyl-phenyl)-1H-benzoimidazol-2-yl]-amide], the IC50 is reported as 2.07 µM.
In the case of `CCOc1ccc(-c2ccc3[nH]c(NC(=O)c4cn5cccc(C)c5n4)nc3c2)cc1F` [Example 81, 8-Methyl-imidazo[1,2-a]pyridine-2-carboxylic acid [5-(4-ethoxy-3-fluoro-phenyl)-1H-benzoimidazol-2-yl]-amide], the IC50 is reported as 1.72 µM.
`Cc1cccc2nc(C(=O)Nc3nc4cc(C5CCCCC5)ccc4[nH]3)cn12` [Example 85, 5-Methyl-imidazo[1,2-a]pyridine-2-carboxylic acid (5-cyclohexyl-1H-benzoimidazol-2-yl)-amide] gave an IC50 of 1.93 µM.
Work on `Cc1cccn2cc(C(=O)Nc3nc4cc(-c5cc(Cl)cc(C(F)(F)F)c5)ccc4[nH]3)nc12` [Example 86, 8-Methyl-imidazo[1,2-a]pyridine-2-carboxylic acid [5-(3-chloro-5-trifluoromethyl-phenyl)-1H-benzoimidazol-2-yl]-amide] yielded an IC50 of 0.28 µM.
For `Cc1cccn2cc(C(=O)Nc3nc4cc(-c5cc(Cl)ccc5Cl)ccc4[nH]3)nc12` [Example 88, 8-Methyl-imidazo[1,2-a]pyridine-2-carboxylic acid [5-(2,5-dichloro-phenyl)-1H-benzoimidazol-2-yl]-amide], the IC50 was 0.29 µM.
Work on `COc1ccc(-c2ccc3[nH]c(NC(=O)c4cn5cccc(C)c5n4)nc3c2)cc1C(F)(F)F` [Example 89, 8-Methyl-imidazo[1,2-a]pyridine-2-carboxylic acid [5-(4-methoxy-3-trifluoromethyl-phenyl)-1H-benzoimidazol-2-yl]-amide] yielded an IC50 of 2.28 µM.
For `Cc1cccc2nc(C(=O)Nc3nc4cc(-c5ccc(OC(C)C)c(Cl)c5)ccc4[nH]3)cn12` [Example 90, 5-Methyl-imidazo[1,2-a]pyridine-2-carboxylic acid [5-(3-chloro-4-isopropoxy-phenyl)-1H-benzoimidazol-2-yl]-amide], the IC50 was 0.49 µM.
For `Cc1cccc2nc(C(=O)Nc3nc4cc(-c5ccc(C(F)(F)F)cc5Cl)ccc4[nH]3)cn12` [Example 91, 5-Methyl-imidazo[1,2-a]pyridine-2-carboxylic acid [5-(2-chloro-4-trifluoromethyl-phenyl)-1H-benzoimidazol-2-yl]-amide], the IC50 was 0.44 µM.
`Cc1cccn2cc(C(=O)Nc3nc4cc(-c5ccc(C(F)(F)F)c(Cl)c5)ccc4[nH]3)nc12` [Example 93, 8-Methyl-imidazo[1,2-a]pyridine-2-carboxylic acid [5-(3-chloro-4-trifluoromethyl-phenyl)-1H-benzoimidazol-2-yl]-amide] showed an IC50 of 1.78 µM.
`Cc1cccc2nc(C(=O)Nc3nc4cc(-c5cc(F)cc(C(F)(F)F)c5)ccc4[nH]3)cn12` [Example 94, 5-Methyl-imidazo[1,2-a]pyridine-2-carboxylic acid [5-(3-fluoro-5-trifluoromethyl-phenyl)-1H-benzoimidazol-2-yl]-amide] was tested, and the IC50 was 0.42 µM.
With `Cc1cccn2cc(C(=O)Nc3nc4cc(-c5cc(F)cc(C(F)(F)F)c5)ccc4[nH]3)nc12` [Example 95, 8-Methyl-imidazo[1,2-a]pyridine-2-carboxylic acid [5-(3-fluoro-5-trifluoromethyl-phenyl)-1H-benzoimidazol-2-yl]-amide] the IC50 was 0.32 µM.
Compound `Cc1cccc2nc(C(=O)Nc3nc4cc(-c5cnc(N(C)C)nc5)ccc4[nH]3)cn12` [Example 96, 5-Methyl-imidazo[1,2-a]pyridine-2-carboxylic acid [5-(2-dimethylamino-pyrimidin-5-yl)-1H-benzoimidazol-2-yl]-amide] has an IC50 of 1.17 µM.
For `Cc1cccc2nc(C(=O)Nc3nc4cc(-c5ccc(OC(F)(F)F)cc5)ccc4[nH]3)cn12` [Example 98, 5-Methyl-imidazo[1,2-a]pyridine-2-carboxylic acid [5-(4-trifluoromethoxy-phenyl)-1H-benzoimidazol-2-yl]-amide], the IC50 was 0.44 µM.
With `Cc1cccc2nc(C(=O)Nc3nc4cc(-c5ccc(C6CCCCC6)cc5)ccc4[nH]3)cn12` [Example 101, 5-Methyl-imidazo[1,2-a]pyridine-2-carboxylic acid [5-(4-cyclohexyl-phenyl)-1H-benzoimidazol-2-yl]-amide] the IC50 was 0.3 µM.
`Cc1cccc2nc(C(=O)Nc3nc4cc(-c5ccc(O)c(F)c5)ccc4[nH]3)cn12` [Example 103, 5-Methyl-imidazo[1,2-a]pyridine-2-carboxylic acid [5-(3-fluoro-4-hydroxy-phenyl)-1H-benzoimidazol-2-yl]-amide] showed an IC50 of 1.74 µM.
Compound `CCc1cccc2nc(C(=O)Nc3nc4cc(-c5cccc(C(F)(F)F)c5)ccc4[nH]3)cn12` [Example 104, 5-Ethyl-imidazo[1,2-a]pyridine-2-carboxylic acid [5-(3-trifluoromethyl-phenyl)-1H-benzoimidazol-2-yl]-amide] has an IC50 of 0.31 µM.
Compound `COc1cc(F)ccc1-c1ccc2[nH]c(NC(=O)c3cn4c(C)cccc4n3)nc2c1` [Example 105, 5-Methyl-imidazo[1,2-a]pyridine-2-carboxylic acid [5-(4-fluoro-2-methoxy-phenyl)-1H-benzoimidazol-2-yl]-amide] has an IC50 of 1.79 µM.
For `CCOc1ccc(-c2ccc3[nH]c(NC(=O)c4cn5c(C)cccc5n4)nc3c2)c(Cl)c1` [Example 108, 5-Methyl-imidazo[1,2-a]pyridine-2-carboxylic acid [5-(2-chloro-4-ethoxy-phenyl)-1H-benzoimidazol-2-yl]-amide], the IC50 was 0.39 µM.
`O=C(Nc1nc2cc(-c3cccc(C(F)(F)F)c3)ccc2[nH]1)c1cn2c(Br)cccc2n1` [Example 111, 5-Bromo-imidazo[1,2-a]pyridine-2-carboxylic acid [5-(3-trifluoromethyl-phenyl)-1H-benzoimidazol-2-yl]-amide] gave an IC50 of 0.22 µM.
Compound `O=C(Nc1nc2cc(-c3cc(F)cc(Cl)c3)ccc2[nH]1)c1cn2cc(F)ccc2n1` [Example 113, 6-Fluoro-imidazo[1,2-a]pyridine-2-carboxylic acid [5-(3-chloro-5-fluoro-phenyl)-1H-benzoimidazol-2-yl]-amide] has an IC50 of 0.46 µM.
Work on `CCOC(=O)c1ccn2cc(C(=O)Nc3nc4cc(-c5cc(F)cc(Cl)c5)ccc4[nH]3)nc2c1` [Example 114, 2-[5-(3-Chloro-5-fluoro-phenyl)-1H-benzoimidazol-2-ylcarbamoyl]-imidazo[1,2-a]pyridine-7-carboxylic acid ethyl ester] yielded an IC50 of 0.29 µM.
Work on `O=C(Nc1nc2cc(-c3cc(F)cc(Cl)c3)ccc2[nH]1)c1cn2ccccc2n1` [Example 116, Imidazo[1,2-a]pyridine-2-carboxylic acid [5-(3-chloro-5-fluoro-phenyl)-1H-benzoimidazol-2-yl]-amide] yielded an IC50 of 0.38 µM.
With `Cc1cccc2nc(C(=O)Nc3nc4cc(C5CCCC5)ccc4[nH]3)cn12` [Example 118, 5-Methyl-imidazo[1,2-a]pyridine-2-carboxylic acid (5-cyclopentyl-1H-benzoimidazol-2-yl)-amide] the IC50 was 0.99 µM.
`Cc1ccc(-c2ccc3[nH]c(NC(=O)c4cn5c(C)cccc5n4)nc3c2)cc1` [Example 120, 5-Methyl-imidazo[1,2-a]pyridine-2-carboxylic acid (5-p-tolyl-1H-benzoimidazol-2-yl)-amide] was tested, and the IC50 was 0.49 µM.
`O=C(Nc1nc2cc(-c3cccc(C(F)(F)F)c3)ccc2[nH]1)c1cn2c(-c3ccccc3)cccc2n1` [Example 125, 5-Phenyl-imidazo[1,2-a]pyridine-2-carboxylic acid [5-(3-trifluoromethyl-phenyl)-1H-benzoimidazol-2-yl]-amide] gave an IC50 of 1.17 µM.

Reference: patent US20120101093A1, “SUBSTITUTED IMIDAZO[1,2-A]PYRIDINE DERIVATIVES, PHARMACEUTICAL COMPOSITIONS, AND METHODS OF USE AS BETA-SECRETASE INHIBITORS” (HIGH POINT PHARMACEUTICALS, LLC, priority 2009, published 2012)
